Data: PubChem BioAssay (NCI)
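Here, GI50 denotes the concentration required for 50% inhibition of growth. At the TGI there is no net growth.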

Legend:
Test in all cases: NCI anticancer screen, dose series, 384-well format
KM12 colon = test system: KM12 colon
RXF 393 renal = test system: RXF 393 renal
MOLT-4 leukemia = test system: MOLT-4 leukemia
SNB-19 CNS = test system: SNB-19 CNS
M14 melanoma = test system: M14 melanoma
BT-549 breast = test system: BT-549 breast
UACC-62 melanoma = test system: UACC-62 melanoma
SK-OV-3 ovarian = test system: SK-OV-3 ovarian
NCI-H460 NSCLC = test system: NCI-H460 NSCLC
OVCAR-8 ovarian = test system: OVCAR-8 ovarian
SN12C renal = test system: SN12C renal
SF-295 CNS = test system: SF-295 CNS
SF-268 CNS = test system: SF-268 CNS
A549 NSCLC = test system: A549 NSCLC
HL-60(TB) leukemia = test system: HL-60(TB) leukemia
TK-10 renal = test system: TK-10 renal
UACC-257 melanoma = test system: UACC-257 melanoma
HOP-62 NSCLC = test system: HOP-62 NSCLC
MDA-MB-231 breast = test system: MDA-MB-231 breast
786-0 renal = test system: 786-0 renal
HCT-15 colon = test system: HCT-15 colon
COLO 205 colon = test system: COLO 205 colon
IGROV1 ovarian = test system: IGROV1 ovarian
LOX IMVI melanoma = test system: LOX IMVI melanoma
SK-MEL-28 melanoma = test system: SK-MEL-28 melanoma
NCI-H226 lung = test system: NCI-H226 lung
NCI-H23 lung = test system: NCI-H23 lung
PC-3 prostate = test system: PC-3 prostate
NCI-H522 lung = test system: NCI-H522 lung
NCI-H322M lung = test system: NCI-H322M lung
HCC-2998 colon = test system: HCC-2998 colon
A498 renal = test system: A498 renal
OVCAR-3 ovarian = test system: OVCAR-3 ovarian
SK-MEL-5 melanoma = test system: SK-MEL-5 melanoma
SW-620 colon = test system: SW-620 colon
MDA-MB-435 melanoma = test system: MDA-MB-435 melanoma
SNB-75 CNS = test system: SNB-75 CNS
HT29 colon = test system: HT29 colon
MCF7 breast = test system: MCF7 breast
CAKI-1 renal = test system: CAKI-1 renal
OVCAR-5 ovarian = test system: OVCAR-5 ovarian
U251 glioblastoma = test system: U251 glioblastoma
HCT-116 colon = test system: HCT-116 colon
HS 578T breast = test system: HS 578T breast
SR leukemia = test system: SR leukemia
UO-31 renal = test system: UO-31 renal
RPMI-8226 leukemia = test system: RPMI-8226 leukemia
NCI/ADR-RES ovarian = test system: NCI/ADR-RES ovarian
EKVX NSCLC = test system: EKVX NSCLC
MDA-MB-468 breast = test system: MDA-MB-468 breast
SF-539 CNS = test system: SF-539 CNS
HOP-92 NSCLC = test system: HOP-92 NSCLC
DU-145 prostate = test system: DU-145 prostate
MALME-3M melanoma = test system: MALME-3M melanoma
ACHN renal = test system: ACHN renal
OVCAR-4 ovarian = test system: OVCAR-4 ovarian

O=C(c1ccc(OCCN2CCCCC2)cc1)c1c(-c2ccc(O)cc2)sc2cc(O)ccc12
GI50 (KM12 colon): 4.09 µM | TGI (KM12 colon): 12.7 µM | GI50 (RXF 393 renal): 2.29 µM | TGI (RXF 393 renal): 5.12 µM | GI50 (MOLT-4 leukemia): 1.8 µM | TGI (MOLT-4 leukemia): 4.59 µM | GI50 (SNB-19 CNS): 11.7 µM | TGI (SNB-19 CNS): 24.1 µM | GI50 (M14 melanoma): 2.09 µM | TGI (M14 melanoma): 3.88 µM | GI50 (BT-549 breast): 1.59 µM | TGI (BT-549 breast): 3.74 µM | GI50 (UACC-62 melanoma): 5.22 µM | TGI (UACC-62 melanoma): 17.3 µM | GI50 (SK-OV-3 ovarian): 9.94 µM | TGI (SK-OV-3 ovarian): 21.6 µM | GI50 (NCI-H460 NSCLC): 8.87 µM | TGI (NCI-H460 NSCLC): 21 µM | GI50 (OVCAR-8 ovarian): 4.04 µM | TGI (OVCAR-8 ovarian): 14 µM | GI50 (SN12C renal): 12.6 µM | TGI (SN12C renal): 25.2 µM | GI50 (SF-295 CNS): 12.8 µM | TGI (SF-295 CNS): 25.5 µM | GI50 (SF-268 CNS): 5.08 µM | TGI (SF-268 CNS): 17.2 µM | GI50 (A549 NSCLC): 4.42 µM | TGI (A549 NSCLC): 15.4 µM | GI50 (HL-60(TB) leukemia): 1.83 µM | TGI (HL-60(TB) leukemia): 3.25 µM | GI50 (TK-10 renal): 9.63 µM | TGI (TK-10 renal): 21.4 µM | GI50 (UACC-257 melanoma): 1.96 µM | TGI (UACC-257 melanoma): 3.61 µM | GI50 (HOP-62 NSCLC): 3.31 µM | TGI (HOP-62 NSCLC): 10.8 µM | GI50 (MDA-MB-231 breast): 2.2 µM | TGI (MDA-MB-231 breast): 4.97 µM | GI50 (786-0 renal): 1.55 µM | TGI (786-0 renal): 2.94 µM | GI50 (HCT-15 colon): 1.26 µM | TGI (HCT-15 colon): 3.51 µM | GI50 (COLO 205 colon): 17.1 µM | TGI (COLO 205 colon): 30.9 µM | GI50 (IGROV1 ovarian): 2.75 µM | TGI (IGROV1 ovarian): 7.87 µM | GI50 (LOX IMVI melanoma): 1.84 µM | TGI (LOX IMVI melanoma): 3.43 µM | GI50 (SK-MEL-28 melanoma): 2.54 µM | TGI (SK-MEL-28 melanoma): 7.63 µM | GI50 (NCI-H226 lung): 3.27 µM | TGI (NCI-H226 lung): 11.2 µM | GI50 (NCI-H23 lung): 3.46 µM | TGI (NCI-H23 lung): 12.7 µM | GI50 (PC-3 prostate): 2.17 µM | TGI (PC-3 prostate): 4.97 µM | GI50 (NCI-H522 lung): 7.17 µM | TGI (NCI-H522 lung): 19.7 µM | GI50 (NCI-H322M lung): 1.86 µM | TGI (NCI-H322M lung): 4.78 µM | GI50 (HCC-2998 colon): 3.71 µM | TGI (HCC-2998 colon): 12.3 µM | GI50 (A498 renal): 2.11 µM | TGI (A498 renal): 4.43 µM | GI50 (OVCAR-3 ovarian): 4.33 µM | TGI (OVCAR-3 ovarian): 16.6 µM | GI50 (SK-MEL-5 melanoma): 1.49 µM | TGI (SK-MEL-5 melanoma): 3.21 µM | GI50 (SW-620 colon): 12.5 µM | TGI (SW-620 colon): 25.1 µM | GI50 (MDA-MB-435 melanoma): 4.38 µM | TGI (MDA-MB-435 melanoma): 10.9 µM | GI50 (SNB-75 CNS): 2.69 µM | TGI (SNB-75 CNS): 8.46 µM | GI50 (HT29 colon): 5.05 µM | TGI (HT29 colon): 16.8 µM | TGI (MCF7 breast): 2.78 µM | GI50 (CAKI-1 renal): 2.15 µM | TGI (CAKI-1 renal): 5.11 µM | GI50 (OVCAR-5 ovarian): 5.94 µM | TGI (OVCAR-5 ovarian): 18.2 µM | GI50 (U251 glioblastoma): 4.07 µM | TGI (U251 glioblastoma): 13.4 µM | GI50 (HCT-116 colon): 3.39 µM | TGI (HCT-116 colon): 12.3 µM | GI50 (HS 578T breast): 2.5 µM | TGI (HS 578T breast): 6.72 µM | GI50 (SR leukemia): 3.15 µM | TGI (SR leukemia): 4.65 µM | GI50 (UO-31 renal): 2.59 µM | TGI (UO-31 renal): 7.34 µM | GI50 (RPMI-8226 leukemia): 2.78 µM | TGI (RPMI-8226 leukemia): 5.32 µM | GI50 (NCI/ADR-RES ovarian): 4.4 µM | TGI (NCI/ADR-RES ovarian): 15.1 µM | GI50 (EKVX NSCLC): 6.23 µM | TGI (EKVX NSCLC): 18.5 µM | GI50 (MDA-MB-468 breast): 3.08 µM | TGI (MDA-MB-468 breast): 7.65 µM | GI50 (SF-539 CNS): 3.27 µM | TGI (SF-539 CNS): 11.3 µM | GI50 (HOP-92 NSCLC): 2.04 µM | TGI (HOP-92 NSCLC): 5.03 µM | GI50 (DU-145 prostate): 10.8 µM | TGI (DU-145 prostate): 22.7 µM | GI50 (MALME-3M melanoma): 1.48 µM | TGI (MALME-3M melanoma): 2.83 µM | GI50 (ACHN renal): 4.02 µM | TGI (ACHN renal): 12.9 µM | GI50 (OVCAR-4 ovarian): 8.87 µM | TGI (OVCAR-4 ovarian): 20.6 µM
